We go through eight compounds from patent US20220324835A1 (Nurix Therapeutics, Inc., priority 2018, published 2022).

For assay [1], the target named is T1, Cbl-b (Homo sapiens, UniProt Q13191). In words: Cbl-b inhibition assay (Cbl-b activity assay, FRET, Biological Example 1; 100 mM NaCl, 60 nM Src kinase). Format: biochemical. Particulars: upper bound stated in text lists; read-out: IC50 values in the Cbl-b inhibition assay of Biological Example 1. Summed up: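 Binding-based Cbl-b activity assay. Src-phosphorylated, N-terminally biotin-Avi-tagged Cbl-b recruits labelled UbcH5B-Ub, and proximity to streptavidin-terbium yields FRET.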
T1 sequence (Q13191 36-427): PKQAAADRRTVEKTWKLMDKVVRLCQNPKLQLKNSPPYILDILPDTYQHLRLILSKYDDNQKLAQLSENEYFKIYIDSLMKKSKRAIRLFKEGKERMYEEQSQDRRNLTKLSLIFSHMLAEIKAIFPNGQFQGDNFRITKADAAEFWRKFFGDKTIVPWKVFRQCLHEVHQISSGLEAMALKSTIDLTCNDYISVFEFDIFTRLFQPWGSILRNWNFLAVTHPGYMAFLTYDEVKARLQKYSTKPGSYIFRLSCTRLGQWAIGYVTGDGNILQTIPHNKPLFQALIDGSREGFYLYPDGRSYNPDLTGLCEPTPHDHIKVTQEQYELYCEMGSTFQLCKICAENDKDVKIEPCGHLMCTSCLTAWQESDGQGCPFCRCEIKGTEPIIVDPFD

Assay [2] deals with T-cell. Put plainly: IL-2 secretion from T-cells co-stimulated with anti-CD3 and anti-CD28 antibody (Biological Example 2). Format: cell-based, human. The note with it: for fold induction at 0.3 µM / fold induction at 1 µM / fold induction at 4 µM: Homo sapiens, T-cell, read-out: IL-2 secretion Anti-CD3/Anti-CD28 stimulation; for fold induction at 0.3 µM: 0.3 μM Cbl-b inhibitor; for fold induction at 1 µM: 1 μM Cbl-b inhibitor; for fold induction at 4 µM: 4 μM Cbl-b inhibitor; for IL-2 secretion, Anti-CD3/Anti-CD28 stimulation, fold change over baseline: baseline = anti-CD3/anti-CD28 stimulated cells without inhibitor. The gist of the method: (§1)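 T-cells were stimulated with anti-CD3 antibody alone or with anti-CD28 antibody, in the presence or absence of Cbl-b inhibitor. IL-2 secretion or CD25 surface staining was measured, and values expressed as fold over the uninhibited baseline […].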

The test system of assay [3] is T-cell. Put plainly: IL-2 secretion from T-cells stimulated with anti-CD3 antibody alone (Biological Example 2). Format: cell-based, human. The note with it: for fold induction at 1 µM / fold induction at 8 µM: T-cell, read-out: IL-2 secretion Anti-CD3 stimulation; for fold induction at 1 µM: 1 μM Cbl-b inhibitor; for fold induction at 8 µM: 8 μM Cbl-b inhibitor.
Assay [4] deals with T-cell. Put plainly: CD25 cell surface staining on T-cells co-stimulated with anti-CD3 and anti-CD28 antibody (Biological Example 2). Particulars: for fold induction at 0.3 µM / fold induction at 1 µM / fold induction at 4 µM: Homo sapiens, T-cell, read-out: CD25 staining Anti-CD3/Anti-CD28 stimulation; for fold induction at 0.3 µM: 0.3 μM Cbl-b inhibitor; for fold induction at 1 µM: 1 μM Cbl-b inhibitor; for fold induction at 4 µM: 4 μM Cbl-b inhibitor; for CD25 staining, Anti-CD3/Anti-CD28 stimulation, fold change over baseline: baseline = anti-CD3/anti-CD28 stimulated cells without inhibitor. The format is cell-based, human. Summed up: as §1

The test system of assay [5] is T-cell. Put plainly: CD25 cell surface staining on T-cells stimulated with anti-CD3 antibody alone (Biological Example 2). The format is cell-based, human. The note with it: for fold induction at 1 µM / fold induction at 8 µM: T-cell, read-out: CD25 staining Anti-CD3 stimulation; for fold induction at 1 µM: 1 μM Cbl-b inhibitor; for fold induction at 8 µM: 8 μM Cbl-b inhibitor; for CD25 staining, Anti-CD3 stimulation, fold change over baseline: baseline = anti-CD3/anti-CD28 stimulated cells without inhibitor.

The target in assay [6] is T1, Cbl-b. In words: Cbl-b activity assay (Cbl-b inhibition assay), TR-FRET of Cbl-b interaction with UbcH5B-Ub. The format is biochemical. The gist of the method:
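UbcH5B (C85K) conjugated to N-terminally Bodipy-Fluorescein-labeled ubiquitin served as the fluorescent partner. After compound preincubation, Src kinase (60 nM) with 1 mM ATP and 5 mM MgCl2 (final) was added for 1.5 h, followed by a further 1 h incubation. Some values were obtained with 50 mM NaCl and 30 nM Src.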

The mark [7] stands for this setting: fold change over baseline, primary human total T-cells.
The mark [8] stands for this setting: assay buffer with 100 mM NaCl, 60 nM Src kinase, read-out: Cbl-b activity IC50.
Setting [9] is: 0.3 μM compound, primary human total T-cells.
Setting [10] is: 1 μM compound, primary human total T-cells.
The mark [11] stands for this setting: 4 μM compound, primary human total T-cells.
The mark [12] stands for this setting: 8 μM compound, primary human total T-cells.
Where [13] appears, read: fold change over baseline (anti-CD3/anti-CD28 stimulated T-cells without inhibitor).
The mark [14] stands for this setting: Homo sapiens, fold change over baseline (anti-CD3/anti-CD28 stimulated T-cells without inhibitor).
[15] abbreviates: * assay buffer containing 50 mM NaCl instead of 100 mM NaCl and 30 nM Src kinase instead of 60 nM, read-out: Cbl-b activity IC50 (μM)*.

The structures appear in SMILES notation.

As for `Cc1c[nH]nc1C[C@H](C)c1cccc(N2Cc3c(cccc3C(F)(F)F)C2=O)c1` (single isomer, unassigned) [Compound 270a], the IC50 – broadly, the concentration that inhibits the measured activity by half – on Cbl-b [1] was not above 1000 nM; on Cbl-b [6] (setting [8]) it was 0.301 to 1 µM. Besides, the fold induction at 0.3 µM in the assay with T-cell [2] (setting [7]) was in the range of 1.01 to 2.5; in the assay on T-cell [4] (setting [7]), 1.01 to 1.3. Moreover, the fold induction at 1 µM lay in the range of 1.01 to 2.5 in the assay with T-cell [2] (setting [7]), 0.101 to 0.15 in the assay on T-cell [3] (setting [7]), 1.01 to 1.3 in the assay with T-cell [4] (setting [7]) and 0.601 to 0.8 with T-cell [5] (setting [7]). Moreover, the fold induction at 4 µM lay within 1.01 to 2.5 in the assay on T-cell [2] (setting [7]) and 1.01 to 1.3 with T-cell [4] (setting [7]). The fold induction at 8 µM was 0.151 to 0.2 in the assay on T-cell [3] (setting [7]) and 0.801 to 1 in the assay on T-cell [5] (setting [7]).

Take `Cn1cnnc1[C@@H](F)[C@](C)(F)c1cccc(N2Cc3c(cccc3C(F)(F)F)C2=O)c1` (stereo in doubt) [Compound 480, 2-(3-((1R,2R)-1,2-difluoro-1-(4-methyl-4H-1,2,4-triazol-3-yl)propan-2-yl)phenyl)-4-(trifluoromethyl)isoindolin-1-one]: the results for the IC50 at Cbl-b [1] and on Cbl-b [6] (setting [8]) were not above 300 nM and 0.1 to 0.3 µM, respectively. Further, the “IL-2 secretion, Anti-CD3/Anti-CD28 stimulation, fold change over baseline” value in the assay on T-cell [2] (setting [9]), with T-cell [2] (setting [10]) and in the assay with T-cell [2] (setting [11]) was “D (D indicates 1.01-2.50 fold)” in each case. The “IL-2 secretion, Anti-CD3 stimulation, fold change over baseline” value is listed as “E (E indicates ≤0.050 fold)” with T-cell [3] (setting [10]) and “D (D indicates 0.051-0.1 fold)” with T-cell [3] (setting [12]). Further, the “CD25 staining, Anti-CD3/Anti-CD28 stimulation, fold change over baseline” value with T-cell [4] (setting [9]), in the assay with T-cell [4] (setting [10]) and in the assay on T-cell [4] (setting [11]) was “D (D indicates 1.01-1.30 fold)” in each case. For the same compound, the “CD25 staining, Anti-CD3 stimulation, fold change over baseline” value with T-cell [5] (setting [10]) is “D (D indicates ≤0.600 fold)”; in the assay with T-cell [5] (setting [12]) it was “C (C indicates 0.601<0.800 fold)”.

`CC(c1cc(C(=O)Nc2cccc(C3(Cc4nncn4C)COC3)c2)nc(C2CC2)n1)N1CCC2(CC2)C1` (stereo in doubt) [Example 592a, (R)-6-(1-(5-azaspiro[2.4]heptan-5-yl)ethyl)-2-cyclopropyl-N-(3-(3-((4-methyl-4H-1,2,4-triazol-3-yl)methyl)oxetan-3-yl)phenyl)pyrimidine-4-carboxamide]: the IC50 on Cbl-b [1] is not above 100 nM; on Cbl-b [6] (setting [8]), less than 0.1 µM. In addition, the fold induction at 0.3 µM in the assay on T-cell [2] (setting [13]) is 5 to 7.5; in the assay on T-cell [4] (setting [13]), 1.01 to 1.3. In addition, the fold induction at 1 µM was more than 7.5 in the assay with T-cell [2] (setting [13]), more than 0.201 in the assay on T-cell [3] (setting [14]), 1.01 to 1.3 with T-cell [4] (setting [13]) and more than 1 in the assay on T-cell [5] (setting [14]).

For the compound `COc1cccc(C(=O)Nc2cccc([C@H](C)Sc3nncn3C)c2)n1` [Compound 38, (S)-6-Methoxy-N-(3-(1-((4-methyl-4H-1,2,4-triazol-3-yl)thio)ethyl)phenyl)picolinamide], the IC50 on Cbl-b [1] was not above 1000 nM; at Cbl-b [6] (setting [15]), 0.301 to 1 µM; at Cbl-b [6] (setting [8]), 0.301 to 1 µM. The figures for the fold induction at 0.3 µM in the assay on T-cell [2] (setting [7]) and in the assay with T-cell [4] (setting [7]) were 1.01 to 2.5 and less than 1, respectively. Also, the fold induction at 1 µM is 1.01 to 2.5 in the assay with T-cell [2] (setting [7]), 0.101 to 0.15 in the assay with T-cell [3] (setting [7]), less than 1 in the assay on T-cell [4] (setting [7]) and less than 0.6 with T-cell [5] (setting [7]). Also, the fold induction at 4 µM fell in the range of 2.51 to 5 in the assay with T-cell [2] (setting [7]) and 1.31 to 1.5 with T-cell [4] (setting [7]). In addition, the fold induction at 8 µM with T-cell [3] (setting [7]) was in the range of 0.151 to 0.2; in the assay with T-cell [5] (setting [7]), 0.601 to 0.8.

As for `Cc1nc(C(=O)Nc2cccc([C@H](C)Sc3nncn3C)c2)ccc1Cl` [Compound 39, (S)-5-Chloro-6-methyl-N-(3-(1-((4-methyl-4H-1,2,4-triazol-3-yl)thio)ethyl)phenyl)picolinamide], the IC50 on Cbl-b [1] was not above 500 nM; at Cbl-b [6] (setting [15]), 0.301 to 1 µM; on Cbl-b [6] (setting [8]), 0.1 to 0.3 µM. Besides, the fold induction at 0.3 µM with T-cell [2] (setting [7]) was 2.51 to 5; in the assay on T-cell [4] (setting [7]), less than 1. In addition, the fold induction at 1 µM in the assay with T-cell [2] (setting [7]) is 5 to 7.5; in the assay with T-cell [3] (setting [7]) it was less than 0.05; in the assay on T-cell [4] (setting [7]) it was 1.01 to 1.3; in the assay on T-cell [5] (setting [7]), less than 0.6. Further, the fold induction at 4 µM in the assay on T-cell [2] (setting [7]) is more than 7.5; with T-cell [4] (setting [7]) it was 1.01 to 1.3. Besides, the fold induction at 8 µM in the assay with T-cell [3] (setting [7]) fell in the range of 0.051 to 0.1; with T-cell [5] (setting [7]), 0.801 to 1.

Regarding `C[C@H](Sc1nncn1C)c1cccc(NC(=O)c2cc(C3(O)COC3)cc(C(F)(F)F)n2)c1` [Compound 84, (S)-4-(3-hydroxyoxetan-3-yl)-N-(3-(1-((4-methyl-4H-1,2,4-triazol-3-yl)thio)ethyl)phenyl)-6-(trifluoromethyl)picolinamide], the IC50 on Cbl-b [1] was not above 1000 nM; on Cbl-b [6] (setting [8]), 0.301 to 1 µM. Further, the fold induction at 0.3 µM in the assay on T-cell [2] (setting [7]) and with T-cell [4] (setting [7]) was less than 1 throughout. Moreover, the fold induction at 1 µM was less than 1 in the assay with T-cell [2] (setting [7]), less than 0.05 with T-cell [3] (setting [7]), 1.01 to 1.3 in the assay on T-cell [4] (setting [7]) and less than 0.6 in the assay on T-cell [5] (setting [7]). For the same compound, the values for the fold induction at 4 µM with T-cell [2] (setting [7]) and in the assay with T-cell [4] (setting [7]) were less than 1 and 1.01 to 1.3, respectively. In addition, the fold induction at 8 µM in the assay on T-cell [3] (setting [7]) is less than 0.05; in the assay on T-cell [5] (setting [7]), 0.601 to 0.8.

`COc1cc(C(=O)Nc2cccc([C@H](C)Cc3nncn3C)c2)nc(C(F)(F)F)c1` [Compound 192, (R)-4-methoxy-N-(3-(1-(4-methyl-4H-1,2,4-triazol-3-yl)propan-2-yl)phenyl)-6-(trifluoromethyl)picolinamide]: the IC50 at Cbl-b [1] is not above 1000 nM; at Cbl-b [6] (setting [8]) it was 0.301 to 1 µM. In addition, the fold induction at 0.3 µM in the assay on T-cell [2] (setting [7]) lay within 1.01 to 2.5; with T-cell [4] (setting [7]) it was 1.01 to 1.3. The fold induction at 1 µM was 1.01 to 2.5 in the assay with T-cell [2] (setting [7]), 0.101 to 0.15 in the assay on T-cell [3] (setting [7]), 1.01 to 1.3 in the assay with T-cell [4] (setting [7]) and 0.801 to 1 in the assay with T-cell [5] (setting [7]). Further, the values for the fold induction at 4 µM in the assay with T-cell [2] (setting [7]) and with T-cell [4] (setting [7]) were 1.01 to 2.5 and 1.01 to 1.3, respectively. Also, the fold induction at 8 µM in the assay on T-cell [3] (setting [7]) lay within 0.101 to 0.15; in the assay with T-cell [5] (setting [7]) it was 0.801 to 1.

As to `C[C@H](Cc1nncn1C)c1cccc(NC(=O)c2cc3cc(N4CCN(C)C(=O)C4)ccc3cn2)c1` [Compound 209, (R)-6-(4-methyl-3-oxopiperazin-1-yl)-N-(3-(1-(4-methyl-4H-1,2,4-triazol-3-yl)propan-2-yl)phenyl)isoquinoline-3-carboxamide 2,2,2-trifluoroacetate], the values for the IC50 at Cbl-b [1] and on Cbl-b [6] (setting [8]) were not above 100 nM and less than 0.1 µM, respectively. The fold induction at 0.3 µM in the assay with T-cell [2] (setting [7]) was in the range of 5 to 7.5; with T-cell [4] (setting [7]) it was 1.31 to 1.5. The fold induction at 1 µM with T-cell [2] (setting [7]) is 5 to 7.5; with T-cell [3] (setting [7]) it was more than 0.201; in the assay with T-cell [4] (setting [7]) it was 1.31 to 1.5; in the assay on T-cell [5] (setting [7]), less than 0.6. Also, the fold induction at 4 µM in the assay with T-cell [2] (setting [7]) is more than 7.5; in the assay on T-cell [4] (setting [7]), 1.51 to 1.75. Moreover, the values for the fold induction at 8 µM in the assay with T-cell [3] (setting [7]) and with T-cell [5] (setting [7]) were more than 0.201 and more than 1, respectively.
